Data set [1] can be described thus: UV-visible absorption and fluorescence spectra, fluorescence quantum yields in solution. The data set is classed as physicochemical. As to the method:
^1H NMR and ^13C NMR spectra were taken on a 400 MHz Varian Unity Inova spectrophotometer instrument. ^1H and ^13C NMR spectra were recorded in CDCl3, chemical shifts (δ) are given in ppm relative to solvent peaks (1H: δ 7.26; 13C: δ 77.3) as internal standard. UV spectra were taken on a Hewlett Packard 8452A Diode Array UV-visible spectrophotometer. Fluorescence spectra were recorded on a Spex Fluorolog 1681 0.22 m steady-state fluorometer. Fluorescence quantum yields of BODIPY dyes and polymers were measured in methylene chloride and DMF, and calculated by using fluorescein excited at 490 nm in 0.1 N NaOH as the reference absolute quantum efficiency (φn=85%). Molecular weights of the polymers were determined by gel permeation chromatography (“GPC”) by using a Waters Associates Model 6000A liquid chromatograph. Three American Polymer Standards Corp. Ultrastyragel columns in series with porosity indices of 10^3, 10^4, and 10^5 Å were used and housed in an oven thermostated at 30° C. Mobile phase was HPLC grade THF which was filtered and degassed by vacuum filtration through a 0.5 μm fluoropore filter prior to use. The polymers were detected by a Waters Model 440 ultraviolet absorbance detector at a wavelength of 254 nm and a Waters Model 2410 refractive index detector. Molecular weights were measured relative to polystyrene standards. An Enraf Nonius CAD-4 X-Ray diffractometer was used in the crystal structure determination. The windows program WinGX was used as the interface for the solution and refinement of the model. The data were first reduced and corrected for absorption using the psi-scans, and then solved using the program SIR2004. The model was refined using SHELXL97.
(§1) ^1H NMR and ^13C NMR spectra were taken on a 400 MHz Varian Unity Inova spectrophotometer instrument. ^1H and ^13C NMR spectra were recorded in CDCl3, and chemical shifts (5) are given in ppm relative to solvent peaks (at 7.24 ppm for ^1H spectra and at 77.3 for ^13C spectra) as internal standard. UV spectra were taken on a Hewlett-Packard 8452A Diode Array UV-visible spectrophotometer. Fluorescence spectra were recorded on a Spex Fluorolog 1681 0.22 m steady-state fluorometer. Fluorescence quantum yields of BODIPY dyes and polymers were measured in methylene chloride and calculated by using fluorescein excited at 490 nm in 0.1 N NaOH as the reference (its quantum efficiency of 85%). Fluorescence lifetimes were measured on a GL-3300 Nitrogen Laser laserstrobe PTI instrument and analyzed using FeliX32 software.
^1H NMR and ^13C NMR spectra were taken on a 400 MHz Varian Unity Inova spectrophotometer instrument. ^1H and ^13C NMR spectra were recorded in CDCl3, chemical shifts (δ) are given in ppm relative to solvent peaks (^1H: δ 7.26; ^13C: δ 77.3) as internal standard. UV spectra were taken on a Hewlett Packard 8452A Diode Array UV-visible spectrophotometer. Fluorescence spectra were recorded on a Spex Fluorolog 1681 0.22 m steady-state fluorometer. Fluorescence quantum yields of BODIPY dyes and polymers were measured in methylene chloride and DMF, and calculated by using fluorescein excited at 490 nm in 0.1 N NaOH as the reference quantum efficiency (φn=85%).^30,31 Molecular weights of the polymers were determined by gel permeation chromatography (GPC) by using a Waters Associates Model 6000A liquid chromatograph. Three American Polymer Standards Corp. Ultrastyragel columns in series with porosity indices of 10^3, 10^4, and 10^5 Å were used and housed in an oven thermostated at 30° C. Mobile phase was HPLC grade THF which was filtered and degassed by vacuum filtration through a 0.5 μm fluoropore filter prior to use. The polymers were detected by a Waters Model 440 ultraviolet absorbance detector at a wavelength of 254 nm and a Waters Model 2410 refractive index detector. Molecular weights were measured relative to polystyrene standards. […]

Data set [2] is described as follows: Fluorescence lifetime measurement. The format is physicochemical. As to the method: as §1
^1H NMR and ^13C NMR spectra were taken on a 400 MHz Varian Unity Inova spectrophotometer instrument. ^1H and ^13C NMR spectra were recorded in CDCl3, and chemical shifts (δ) are given in ppm relative to solvent peaks (^1H, δ 7.26; ^13C, δ 77.3) as internal standard. UV spectra were taken on a Hewlett-Packard 8452A Diode Array UV-visible spectrophotometer. Fluorescence spectra were recorded on a Spex Fluorolog 1681 0.22 m steady-state fluorometer. Fluorescence quantum yields of BODIPY dyes and polymers were measured in methylene chloride and calculated by using fluorescein exCIted at 490 nm in 0.1 N NaOH as the reference (quantum effiCIency, cPn=85%). Fluorescence lifetimes were measured on a 010-3300 Nitrogen Laser laserstrobe PTI instrument and analyzed using FeliX32 software. Molecular weights of the polymers were determined by gel permeation chromatography (OPC) by using a Waters AssoCIates model 6000A liquid chromatograph. Three American Polymer Standards Corp. ultrastyragel columns in series with porosity indices of 103, 104, and 105 A were used and housed in an oven thermostatted at 30° C. The mobile phase was HPLC grade THF which was filtered and degassed by vacuum filtration through a 0.5, urn fluoropore filter prior to use. The polymers were detected by a Waters Model 440 ultraviolet absorbance detector at a wavelength of 254 nm and a Waters Model 2410 refractive index detector. Molecular weights were determined relative to polystyrene standards.

Where [3] appears, read: CH2Cl2 solution (Table 2, Example 2).
Where [4] appears, read: CH2Cl2 solution, fluorescein reference (Example 2).
Setting [5] is: DMF solution (Table 3, Example 2).
Where [6] appears, read: DMF solution, fluorescein reference (Example 2).
[7] abbreviates: methylene chloride solution (Table 9, Example 13).
Setting [8] is: methylene chloride solution (Table 10, Example 14).
The mark [9] stands for this setting: methylene chloride solution, fluorescein standard (Table 9, Example 13).
[10] abbreviates: methylene chloride solution, fluorescein standard (Table 10, Example 14).

The structures appear in SMILES notation.

With `COc1ccc(C2=C3C(C)=CC(C)=[N+]3[B-](F)(F)n3c(C)cc(C)c32)cc1` [Compound 14, 4,4-Difluoro-8-(4-methoxyphenyl)-1,3,5,7-tetramethyl-4-bora-3a,4a-diaza-s-indacene], the Absorption maxima in data set [1] (setting [3]) and in data set [1] (setting [5]) was 500 nm each time. The Emission maxima in data set [1] (setting [3]) and in data set [1] (setting [5]) was 510 nm throughout. Besides, the figures for the Quantum yield in data set [1] (setting [4]) and in data set [1] (setting [6]) were 80.1% and 71.6%, respectively.
In the case of `CCCCCCCCCCCCOc1cc(C2=C3C(C)=CC(C)=[N+]3[B-](F)(F)n3c(C)cc(C)c32)cc(OCCCCCCCCCCCC)c1OCCCCCCCCCCCC` [Compound 3c], in data set [1] (setting [7]), the Absorption maxima is 503 nm, the Emission maxima came to 511 nm and the Stokes shift came out at 9 nm. In addition, in data set [2] (setting [7]), the Fluorescence lifetime is given as 3.2 ns.
As to `CCCCCCCCCCCCOc1ccc(C2=C3C(C)=C(I)C(C)=[N+]3[B-](F)(F)n3c(C)c(I)c(C)c32)cc1OCCCCCCCCCCCC` [Compound 4b], the Absorption maxima in data set [1] (setting [7]) and in data set [1] (setting [8]) was 534 nm in each case. The Emission maxima in data set [1] (setting [7]) and in data set [1] (setting [8]) was 549 nm each time. Moreover, in data set [1] (setting [7]), the Stokes shift is 15 nm. For the same compound, the values for the Quantum yield in data set [1] (setting [9]) and in data set [1] (setting [10]) were 2.7% and 5.8%, respectively. Also, the Fluorescence lifetime in data set [2] (setting [7]) came out at 0.15 ns; in data set [2] (setting [8]), 0.08 ns.
Turning to `CCCCCCCCCCCCOc1cc(C2=C3C(C)=C(C#C[Si](C)(C)C)C(C)=[N+]3[B-](F)(F)n3c(C)c(C#C[Si](C)(C)C)c(C)c32)cc(OCCCCCCCCCCCC)c1OCCCCCCCCCCCC` [Compound 5c], in data set [1] (setting [7]), the Absorption maxima is listed as 556 nm, the Emission maxima stood at 570 nm and the Stokes shift was 14 nm. In data set [2] (setting [7]), this compound registered a Fluorescence lifetime of 4.4 ns.
`COc1cc(C2=C3C(C)=C(I)C(C)=[N+]3[B-](F)(F)n3c(C)c(I)c(C)c32)cc(OC)c1OC` [Compound 10, 4,4-Difluoro-8-(3,4,5-trimethoxyphenyl)-2,6-diiodo-1,3,5,7-tetramethyl-4-bora-3a,4a-diaza-s-indacene]: the values for the Absorption maxima in data set [1] (setting [3]) and in data set [1] (setting [5]) were 535 nm and 534 nm, respectively. Also, the values for the Emission maxima in data set [1] (setting [3]) and in data set [1] (setting [5]) were 549 nm and 551 nm, respectively. The Quantum yield in data set [1] (setting [4]) worked out at 7.52%; in data set [1] (setting [6]), 3.4%.
For the compound `CCCCCCCCCCCCOc1ccc(C2=C3C(C)=CC(C)=[N+]3[B-](F)(F)n3c(C)cc(C)c32)cc1OCCCCCCCCCCCC` [Compound 3b], the Absorption maxima in data set [1] (setting [7]) and in data set [1] (setting [8]) was 502 nm each time. The Emission maxima in data set [1] (setting [7]) is reported as 510 nm; in data set [1] (setting [8]), 511 nm. The Stokes shift in data set [1] (setting [7]) turned out to be 8 nm. This compound gave a Quantum yield in data set [1] (setting [10]) of 81%. Also, the Fluorescence lifetime in data set [2] (setting [7]) and in data set [2] (setting [8]) was 4.1 ns in each case.
For `CCCCCCCCCCCCOc1ccc(C2=C3C(C)=C(C#C[Si](C)(C)C)C(C)=[N+]3[B-](F)(F)n3c(C)c(C#C[Si](C)(C)C)c(C)c32)cc1OCCCCCCCCCCCC` [Compound 5b], the Absorption maxima amounted to 555 nm in data set [1] (setting [7]) and 554 nm in data set [1] (setting [8]). Also, the Stokes shift in data set [1] (setting [7]) stood at 15 nm. Moreover, the Emission maxima in data set [1] (setting [8]) was found to be 570 nm. The Quantum yield in data set [1] (setting [10]) amounted to 79%. Besides, the Fluorescence lifetime in data set [2] (setting [7]) is on record as 4.6 ns; in data set [2] (setting [8]), 5.2 ns.
In the case of `CCCCCCCCCCCCOc1ccc(C2=C3C(C)=C(I)C(C)=[N+]3[B-](F)(F)n3c(C)c(I)c(C)c32)cc1` [Compound 4a], the Absorption maxima in data set [1] (setting [7]) and in data set [1] (setting [8]) was 533 nm in each case. The Emission maxima in data set [1] (setting [7]) and in data set [1] (setting [8]) was 548 nm throughout. Further, in data set [1] (setting [7]), the Stokes shift was 15 nm. For the same compound, the Quantum yield in data set [1] (setting [9]) is 2.3%; in data set [1] (setting [10]) it was 5.8%. In addition, the values for the Fluorescence lifetime in data set [2] (setting [7]) and in data set [2] (setting [8]) were 0.21 ns and 0.13 ns, respectively.
As for `COc1cc(C2=C3C(C)=CC(C)=[N+]3[B-](F)(F)n3c(C)cc(C)c32)cc(OC)c1OC` [Compound 9, 4,4-Difluoro-8-(3,4,5-trimethoxyphenyl)-1,3,5,7-tetramethyl-4-bora-3a,4a-diaza-s-indacene], the figures for the Absorption maxima in data set [1] (setting [3]) and in data set [1] (setting [5]) were 502 nm and 501 nm, respectively. The Emission maxima in data set [1] (setting [3]) and in data set [1] (setting [5]) was 511 nm throughout. Further, the Quantum yield in data set [1] (setting [4]) is given as 71.5%; in data set [1] (setting [6]), 55.3%.
Consider `COc1ccc(C2=C3C(C)=C(I)C(C)=[N+]3[B-](F)(F)n3c(C)c(I)c(C)c32)cc1` [Compound 15, 4,4-Difluoro-8-(4-methoxyphenyl)-2,6-diiodo-1,3,5,7-tetramethyl-4-bora-3a, 4a-diaza-s-indacene], for which the Absorption maxima in data set [1] (setting [3]) and in data set [1] (setting [5]) was 533 nm in each case. Besides, the Emission maxima in data set [1] (setting [3]) was determined as 548 nm; in data set [1] (setting [5]), 551 nm. For the same compound, the Quantum yield in data set [1] (setting [4]) was found to be 5.72%; in data set [1] (setting [6]), 4.9%.
Regarding `CC1=C(I)C(C)=[N+]2C1=C(c1c(C)cccc1C)c1c(C)c(I)c(C)n1[B-]2(F)F` [Compound 19, 4,4-Difluoro-8-(2,6-dimethylphenyl)-2,6-diiodo-1,3,5,7-tetramethyl-4-bora-3a,4a-diaza-s-indacene], the values for the Absorption maxima in data set [1] (setting [3]) and in data set [1] (setting [5]) were 535 nm and 536 nm, respectively. Moreover, the figures for the Emission maxima in data set [1] (setting [3]) and in data set [1] (setting [5]) were 549 nm and 552 nm, respectively. Further, the Quantum yield is reported as 8.64% in data set [1] (setting [4]) and 4.4% in data set [1] (setting [6]).
For `CC1=CC(C)=[N+]2C1=C(c1c(C)cccc1C)c1c(C)cc(C)n1[B-]2(F)F` [Compound 18, 4,4-Difluoro-8-(2,6-dimethylphenyl)-1,3,5,7-tetramethyl-4-bora-3a,4a-diaza-s-indacene], the Absorption maxima in data set [1] (setting [3]) turned out to be 501 nm; in data set [1] (setting [5]), 502 nm. Moreover, the Emission maxima in data set [1] (setting [3]) and in data set [1] (setting [5]) was 510 nm each time. In addition, the Quantum yield was 86.7% in data set [1] (setting [4]) and 73.8% in data set [1] (setting [6]).

(Values after patent US9623123B2, “Fluorescent conjugated polymers with a bodipy-based backbone and uses thereof” (Michigan Technological University, priority 2008, dated 2017).)
